One assay deals with T1, GST-TYK2(888-1187) (Homo sapiens, UniProt P29597).
T1 construct: GST-TYK2(888-1187); made in house
T1 sequence (P29597 888-1187): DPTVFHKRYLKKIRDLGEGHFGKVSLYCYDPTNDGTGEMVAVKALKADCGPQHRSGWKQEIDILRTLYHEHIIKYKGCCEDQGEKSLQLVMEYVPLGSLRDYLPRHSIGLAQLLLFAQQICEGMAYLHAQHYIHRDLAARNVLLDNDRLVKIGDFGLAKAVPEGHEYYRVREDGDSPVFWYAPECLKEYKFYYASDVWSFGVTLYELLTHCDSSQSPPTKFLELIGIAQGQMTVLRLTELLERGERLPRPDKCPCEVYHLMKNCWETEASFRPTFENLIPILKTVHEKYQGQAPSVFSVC
Nature of the assay: EPK JAK-family kinases profiling assay (Caliper mobility shift), TYK2. Particulars: ATP 30 μM, 40 nM kinase. In kind it is biochemical. The source says:
All four kinases of the JAK-family kinases were used as purified recombinant GST-fusion proteins, containing the active kinase domains. GST-JAK1(866-1154), GST-JAK3(811-1124), and GST-TYK2(888-1187) were expressed and purified by affinity chromatography at the EPK biology unit. GST-JAK2(808-1132) was purchased from Invitrogen (Carlsbad, USA, #4288).
The kinase assays were based on the Caliper mobility shift assay using the LabChip 3000 systems. This technology is similar to capillary electrophoresis and uses charge driven separation of substrate and product in a microfluidic chip.
All kinase reactions were performed in 384 well microtiter plates in a total reaction volume of 18 μl. The assay plates were prepared with 0.1 μl per well of test compound in the appropriate test concentration, as described under the section “preparation of compound dilutions”. The reactions were started by combining 9 μl of substrate mix (consisting of peptide and ATP) with 9 μl of kinase dilution. The reactions were incubated for 60 minutes at 30° C. and stopped by adding 70 μl of stop buffer (100 mM Hepes, 5% DMSO, 0.1% Coating reagent, 10 mM EDTA, 0.015% Brij 35).
Fluorescently labeled synthetic peptides were used as substrates in all reactions. […] Specific assay conditions are described in Table 1:
The terminated reactions were transferred to the Caliper LabChip 3000 reader and the turnover of each reaction was measured by determining the substrate/product ratio.
Test compounds were dissolved in DMSO (10 mM) and transferred into 1.4 mL flat bottom or V-shaped Matrix tubes carrying a unique 2D matrix chip by individual compound hubs. The numbers of these chips were distinctively linked to the individual compound identification numbers. The stock solutions were stored at −20° C. if not used immediately. For the test procedure the vials were defrosted and identified by a scanner whereby a working sheet was generated that guided the subsequent working steps.
Compound dilutions were made in 96 well plates. This format enabled the assay of maximally 40 individual test compounds at 8 concentrations (single points) including 4 reference compounds. The dilution protocol included the production of pre-dilution plates, master plates and assay plates:
Pre-dilution plates: 96 polypropylene well plates were used as pre-dilution plates. A total of 4 pre-dilution plates were prepared including 10 test compounds each on the plate positions A1-A10, one standard compound at A11 and one DMSO control at A12. All dilution steps were done on a HamiltonSTAR robot.
Master plates: 100 μL of individual compound dilutions including standard compound and controls of the 4 “pre-dilution plates” were transferred into a 384 “master plate” including the following concentrations 1′820, 564, 182, 54.6, 18.2, 5.46, 1.82 and 0.546 μM, respectively in 90% of DMSO.
Assay plates: Identical assay plates were then prepared by pipetting 100 nL each of compound dilutions of the master plates into 384-well “assay plates”. […] The preparation of the master plates were handled by the Matrix PlateMate Plus robot and replication of assay plates by the HummingBird robot.

For a further assay, the target named is T2, GST-JAK3(811-1124) (Homo sapiens, UniProt P52333).
T2 construct: GST-JAK3(811-1124); made in house
Nature of the assay: EPK JAK-family kinases profiling assay (Caliper mobility shift), JAK3. To be noted: ATP 80 μM, 6 nM kinase. In kind it is biochemical. The procedure, abridged:
(§1)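 Turnover was read as substrate/product ratio after mobility-shift capillary-like separation of each reaction, run for 60 min at 30 °C with GST-tagged kinase domain, labelled peptide and ATP, and terminated with EDTA stop buffer.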

The target in a further assay is T3, GST-JAK2(808-1132) (Homo sapiens, UniProt O60674).
T3 construct: GST-JAK2(808-1132); purchased Invitrogen (Carlsbad, USA) #4288
Nature of the assay: EPK JAK-family kinases profiling assay (Caliper mobility shift), JAK2. In kind it is biochemical. To be noted: ATP 20 μM, 1.8 nM kinase. The procedure, abridged: as §1

Assay [1] concerns JAK/STAT pathway (JAK1/JAK2-dependent nuclear translocation of STAT1-GFP). As to the kind of experiment: Inhibition of the JAK/STAT pathway: IFN-γ stimulated nuclear translocation of STAT1-GFP in HT1080 fibrosarcoma cells. In kind it is cell-based. Particulars: Homo sapiens, HT-1080; HT1080 STAT1-GFP cells, 100 ng/ml IFN-γ 2 hours, compound added 30 min before; read-out: STAT1translo IC50. The procedure, abridged:
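HT1080 cells stably expressing STAT1-GFP, compounds added 30 min before IFN-γ stimulation at final 10 μM down to 0.003 μM (0.1% DMSO). Nuclear-cytoplasmic GFP intensity differential quantified by automated imaging with Hoechst nuclear mask, ≥1000 cells per well, averaged per well.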

In a further assay the target is T4, GST-JAK1(866-1154) (Homo sapiens, UniProt P23458).
T4 construct: GST-JAK1(866-1154); made in house
As to the kind of experiment: EPK JAK-family kinases profiling assay (Caliper mobility shift), JAK1. Particulars: ATP 40 μM, 50 nM kinase. In kind it is biochemical. The procedure, abridged: as §1

T2 sequence (P52333 811-1124): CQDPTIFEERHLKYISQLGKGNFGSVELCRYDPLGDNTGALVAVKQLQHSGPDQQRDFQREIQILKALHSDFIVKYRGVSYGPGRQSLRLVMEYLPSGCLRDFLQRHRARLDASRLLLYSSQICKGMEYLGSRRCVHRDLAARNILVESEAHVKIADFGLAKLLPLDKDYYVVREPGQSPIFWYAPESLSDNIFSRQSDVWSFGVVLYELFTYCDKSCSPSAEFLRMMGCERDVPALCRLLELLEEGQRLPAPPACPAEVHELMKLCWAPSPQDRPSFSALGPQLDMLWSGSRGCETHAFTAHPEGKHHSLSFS
T4 sequence (P23458 866-1154): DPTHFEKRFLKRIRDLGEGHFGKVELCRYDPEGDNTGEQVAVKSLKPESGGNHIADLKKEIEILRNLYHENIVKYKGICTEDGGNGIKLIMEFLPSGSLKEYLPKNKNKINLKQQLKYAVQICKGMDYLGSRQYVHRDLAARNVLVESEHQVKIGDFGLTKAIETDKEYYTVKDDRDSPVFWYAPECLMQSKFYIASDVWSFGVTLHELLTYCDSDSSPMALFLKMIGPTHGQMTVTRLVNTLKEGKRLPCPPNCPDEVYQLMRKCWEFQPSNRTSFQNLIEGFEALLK
T3 sequence (O60674 808-1132): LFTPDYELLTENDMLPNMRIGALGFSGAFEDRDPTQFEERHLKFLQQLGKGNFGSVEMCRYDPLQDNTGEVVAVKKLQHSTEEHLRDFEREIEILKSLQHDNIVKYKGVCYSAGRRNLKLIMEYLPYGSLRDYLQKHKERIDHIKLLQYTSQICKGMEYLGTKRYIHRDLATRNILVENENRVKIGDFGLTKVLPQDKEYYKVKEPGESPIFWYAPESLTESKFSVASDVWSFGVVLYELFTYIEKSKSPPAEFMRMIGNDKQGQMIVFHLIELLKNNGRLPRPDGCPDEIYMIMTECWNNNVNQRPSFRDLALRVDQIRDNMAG

Regarding `COc1cc(-c2cnc3cccc(-c4ccc(CC(=O)N5CCOCC5)cc4)c3n2)ccc1OCCN1CCOCC1` [Example 34, 2-(4-{3-[3-Methoxy-4-(2-morpholin-4-yl-ethoxy)-phenyl]-quinoxalin-5-yl}-phenyl)-1-morpholin-4-yl-ethanone], the IC50 at GST-TYK2(888-1187) worked out at 88 nM; on GST-JAK3(811-1124), 490 nM; at GST-JAK2(808-1132) it was 4.1 nM; in assay [1], 338 nM; on GST-JAK1(866-1154) it was 27 nM.
The like results for `COc1cc(-c2cnc3cccc(-c4ccc(C(=O)N5CCOCC5)c(F)c4)c3n2)ccc1OCCN1CCOCC1` [Example 35, (2-Fluoro-4-{3-[3-methoxy-4-(2-morpholin-4-yl-ethoxy)-phenyl]-quinoxalin-5-yl}-phenyl)-morpholin-4-yl-methanone] were, in that order, 520 nM, 1860 nM, 11.9 nM, 1720 nM and 94 nM.
The like results for `Cc1cc(-c2cnc3cccc(-c4cc(F)c(CN5CCOCC5)c(F)c4)c3n2)ccc1C(=O)N1CCN(C)CC1` [Example 42, {4-[8-(3,5-Difluoro-4-morpholin-4-ylmethyl-phenyl)-quinoxalin-2-yl]-2-methyl-phenyl}-(4-methyl-piperazin-1-yl)-methanone] were, in that order, 1450 nM, 2150 nM, 18 nM, 857 nM and 715 nM.
The matching figures for `Cc1cc(-c2cccc3ncc(-c4ccc(C(=O)N5CCN(C)CC5)c(C)c4)nc23)ccc1CN1CCS(=O)(=O)CC1` [Example 43, (4-{8-[4-(1,1-Dioxido-thiomorpholin-4-ylmethyl)-3-methyl-phenyl]-quinoxalin-2-yl}-2-methyl-phenyl)-(4-methyl-piperazin-1-yl)-methanone]: 715 nM, 870 nM, 27 nM, 1130 nM and 420 nM.
In the case of `Cc1cc(-c2cnc3cccc(-c4cc(F)c(CN5CCOCC5)c(F)c4)c3n2)ccc1C(=O)N1CCC(N(C)C)CC1` [Example 101, {4-[8-(3,5-Difluoro-4-morpholin-4-ylmethyl-phenyl)-quinoxalin-2-yl]-2-methyl-phenyl}-(4-dimethylamino-piperidin-1-yl)-methanone], the IC50 on GST-TYK2(888-1187) was determined as 1450 nM; on GST-JAK3(811-1124), 1020 nM; at GST-JAK2(808-1132) it was 14 nM; at GST-JAK1(866-1154) it was 575 nM.
The matching figures for `Fc1cc(-c2cccc3ncc(-c4cnn(C5CNC5)c4)nc23)cc(F)c1CN1CCOCC1` [Example 116, 2-(1-Azetidin-3-yl-1H-pyrazol-4-yl)-8-(3,5-difluoro-4-morpholin-4-ylmethyl-phenyl)-quinoxaline]: 437 nM, 2900 nM, 8 nM and 243 nM.
The like results for `COCCOC(=O)N1CCC(n2cc(-c3cnc4cccc(-c5cc(F)c(CN6CCOCC6)c(F)c5)c4n3)cn2)CC1` [Example 122, 4-{4-[8-(3,5-Difluoro-4-morpholin-4-ylmethyl-phenyl)-quinoxalin-2-yl]-pyrazol-1-yl}-piperidine-1-carboxylic acid 2-methoxy-ethyl ester] were, in that order, 540 nM, 3250 nM, 9.35 nM and 475 nM.
Consider `CS(=O)(=O)c1ccc(-c2cccc3ncc(-c4cnn(C5CCNCC5)c4)nc23)cc1` [Example 144, 8-(4-Methanesulfonyl-phenyl)-2-(1-piperidin-4-yl-1H-pyrazol-4-yl)-quinoxaline], for which the IC50 stood at 970 nM at GST-TYK2(888-1187), 25 nM on GST-JAK2(808-1132), 7660 nM in assay [1] and 960 nM at GST-JAK1(866-1154).
The like results for `Fc1cc(-c2cccc3ncc(-c4cnn(C5CCNCC5)c4)nc23)ccc1CN1CCOCC1` [Example 145, 8-(3-Fluoro-4-morpholin-4-ylmethyl-phenyl)-2-(1-piperidin-4-yl-1H-pyrazol-4-yl)-quinoxaline] were, in that order, 300 nM, 10 nM, 685 nM and 250 nM.
The matching figures for `Cc1cc(-c2cccc3ncc(-c4cnn(C5CCNCC5)c4)nc23)ccc1CN1CCOCC1` [Example 146, 8-(3-Methyl-4-morpholin-4-ylmethyl-phenyl)-2-(1-piperidin-4-yl-1H-pyrazol-4-yl)-quinoxaline]: 570 nM, 9.2 nM, 3390 nM and 840 nM.
On to `O=S1(=O)CCN(Cc2ccc(-c3cccc4ncc(-c5cnn(C6CCNCC6)c5)nc34)cc2)CC1` [Example 148, 8-[4-(1,1-Dioxido-thiomorpholin-4-ylmethyl)-phenyl]-2-(1-piperidin-4-yl-1H-pyrazol-4-yl)-quinoxaline], for which the IC50 on GST-TYK2(888-1187) was determined as 110 nM; at GST-JAK2(808-1132), 3.4 nM; in assay [1], 730 nM; at GST-JAK1(866-1154) it was 73 nM.
The like results for `Cc1cc(CN2CCS(=O)(=O)CC2)ccc1-c1cccc2ncc(-c3cnn(C4CCNCC4)c3)nc12` [Example 149, 8-[4-(1,1-Dioxido-thiomorpholin-4-ylmethyl)-2-methyl-phenyl]-2-(1-piperidin-4-yl-1H-pyrazol-4-yl)-quinoxaline] were, in that order, 900 nM, 51 nM, 9560 nM and 650 nM.
The like results for `c1cc(-c2ccc(CN3CCOCC3)cc2)c2nc(-c3cnn(C4CCNCC4)c3)cnc2c1` [Example 150, 8-(4-Morpholin-4-ylmethyl-phenyl)-2-(1-piperidin-4-yl-1H-pyrazol-4-yl)-quinoxaline] were, in that order, 830 nM, 30 nM, 4280 nM and 830 nM.
The like results for `CN1CCN(c2cccc(-c3cnc4cccc(-c5cc(F)c(CN6CCS(=O)(=O)CC6)c(F)c5)c4n3)c2)CC1` [Example 170, 8-[4-(1,1-Dioxido-thiomorpholin-4-ylmethyl)-3,5-difluoro-phenyl]-2-[3-(4-methyl-piperazin-1-yl)-phenyl]-quinoxaline] were, in that order, 140 nM, 4 nM, 296 nM and 21 nM.

In general, IC50 refers to the point on the concentration scale where inhibition reaches its midpoint.

The record behind these values is patent publication US8193189B2, “Quinoxaline derivatives as tyrosine kinase activity inhibitors” (Novartis AG, priority 2007, dated 2012).
